Assay [1] in a line: inhibitory activity against 5-hydroxytryptamine 1C receptor of pig choroid plexus using [3H]mesulergine as the radioligand.
Assay [2] can be described thus: Compound was evaluated for its inhibitory activity against 5-hydroxytryptamine 1D receptor of bovine caudate using [3H]5-HT as the radioligand.

This is an account of results in BindingDB's records for doi:10.1021/jm00170a007 (Pfizer, 1990).

The term IC50 denotes the midpoint of a concentration-inhibition curve. A high value points to lower potency.

Consider `FC(F)(F)c1ccc2c(c1)nc(N1CCNCC1)c1cccn12` [4-Piperazin-1-yl-7-trifluoromethyl-pyrrolo[1,2-a]quinoxaline(desmethyl-CGS-12066B)], for which the IC50 stood at 10 µM in assay [1] and 0.19 µM in assay [2].
